According to PMC9037358 (RSC Advances, 2021):

Tests used:
Klebsiella pneumonia = test: Antimicrobial activity; assay type: cell-based; settings: 50 μg mL^−1; NA: not active
MDA-MB-231 [1] = test: MTT cytotoxicity assay; assay type: cell-based; settings: Homo sapiens, MDA-MB-231, 48 h, read-out: Cytotoxicity IC50 μM ± S.D. MDA-MB-231
[2] = system: Staphylococcus aureus NRRL B-767; test: Antimicrobial activity; assay type: cell-based; settings: 50 μg mL^−1, NA: not active
K. pneumonia = test: Anti-biofilm activity; assay type: cell-based; settings: 50 μg mL^−1
S. aureus = test: Anti-biofilm activity; assay type: cell-based; settings: 50 μg mL^−1
carbonic anhydrase II = carbonic anhydrase II (Homo sapiens, UniProt P00918); test: In vitro carbonic anhydrase II enzyme inhibition; assay type: biochemical
[3] = system: Escherichia coli ATCC 25955; test: Antimicrobial activity; assay type: cell-based; settings: 50 μg mL^−1; NA: not active
E. coli [4] = test: Anti-biofilm activity; assay type: cell-based; settings: 50 μg mL^−1
Salmonella typhimurium = test: Antimicrobial activity; assay type: cell-based; settings: 50 μg mL^−1; NA: not active
MDA-MB-231 [5] = test: Cellular uptake assay; assay type: cell-based, human; settings: HPLC
[6] = MTT cytotoxicity assay, normal breast cell line; assay type: cell-based, human; settings: human, MCF 10A normal breast cells
MCF 10A = test: MTT cytotoxicity assay, normal breast cell line; assay type: cell-based, human; settings: both breast cancer cell lines vs MCF-10A
MCF-7 = test: MTT cytotoxicity assay; assay type: cell-based; settings: Homo sapiens, MCF7, 48 h, read-out: Cytotoxicity IC50 μM ± S.D. MCF-7
P. vulgaris = test: Anti-biofilm activity; assay type: cell-based; settings: 50 μg mL^−1
MDA-MB-231 [7] = test: Cell cycle analysis; assay type: cell-based, human; settings: compared to positive control
S. typhimurium = test: Anti-biofilm activity; assay type: cell-based; settings: 50 μg mL^−1
MDA-MB-231 [8] = test: Annexin V-FITC apoptosis assay; assay type: cell-based, human
Proteus vulgaris = test: Antimicrobial activity; assay type: cell-based; settings: 24 h, read-out: inhibition ratio% P. vulgaris
carbonic anhydrase IX = carbonic anhydrase IX (Homo sapiens, UniProt Q16790); test: In vitro carbonic anhydrase IX enzyme inhibition; assay type: biochemical
[9] = system: Candida albicans ATCC 10231; test: Antimicrobial activity; assay type: cell-based; settings: 50 μg mL^−1; NA: not active
CA IX = settings: read-out: CA IX IC50; as reported; cited from earlier work
P. aeruginosa = test: Anti-biofilm activity; assay type: cell-based; settings: 50 μg mL^−1
S. flexenari = settings: cited from earlier work
E. coli [10] = settings: cited from earlier work

Row | SMILES | IC50 (MDA-MB-231 [1]) | inhibition ratio% S. aureus [2] | Biofilm inhibition ratio% K. pneumonia (K. pneumonia) | Biofilm inhibition ratio% S. aureus (S. aureus) | Biofilm inhibition ratio% E. coli (E. coli [4]) | inhibition ratio% S. typhimurium (Salmonella typhimurium) | IC50 at 48 h [6] | IC50 (MCF-7) | Biofilm inhibition ratio% P. vulgaris (P. vulgaris) | inhibition of growth at 50 µg/mL (Proteus vulgaris) | also measured
1 | C=CCc1cc(/C=C2/SC(Nc3ccc(S(N)(=O)=O)cc3)=NC2=O)c(O)c(OC)c1 [Compound 4e, (E)-4-(5-(5-Allyl-2-hydroxy-3-methoxybenzylidene)-4-oxo-4,5-dihydrothiazol-2-ylamino)benzenesulfonamide] | 3.58 ± 0.1 µM | 80.69% | 18.60% | 45.92% | 15.47% | 75.09% | 19.4 ± 0.7 µM | 4.58 ± 1.8 µM | 61.41% | 42% | inhibition ratio% K. pneumonia (Klebsiella pneumonia): 62.89%; IC50 (carbonic anhydrase II): 3.92 µM; inhibition ratio% E. coli [3]: 60.66%; level of compound taken up into MDA-MB-231 cell line (MDA-MB-231 [5]): 12500 ng/mL; selectivity to breast cancer cell lines over MCF-10A (MCF 10A): 5.5 times; arrest in the S phase (MDA-MB-231 [7]): 1.4 fold; increase in the percentage of cells at pre-G1 (MDA-MB-231 [7]): 22 fold; Biofilm inhibition ratio% S. typhimurium (S. typhimurium): 63.43%; necrosis phase (MDA-MB-231 [8]; upper left quadrant): 16.65%; annexin V-FITC-positive cells, late apoptotic phase (MDA-MB-231 [8]; upper right quadrant): 22.04%; IC50 (carbonic anhydrase IX; CA IX IC50 (nM)±S.D.): 10.9 nM; IC50 (carbonic anhydrase IX; CA IX IC50 (μM)): 11 nM
2 | NS(=O)(=O)c1ccc(NC2=NC(=O)/C(=C\c3ccccc3)S2)cc1 [Compound 4a, (E)-4-(5-Benzylidene-4-oxo-4,5-dihydrothiazol-2-ylamino)benzenesulfonamide] | 12.8 ± 0.5 µM | – | – | – | – | – | 24.2 ± 0.9 µM | 9.63 ± 0.4 µM | – | – | –
3 | C[C@@H]1[C@H](O)[C@@H](C)/C=C/C=C/CC/C=C/C=C/C=C/C=C/C(O[C@H]2O[C@H](C)[C@@H](O)[C@H](N)[C@@H]2O)CC2O[C@](O)(CC(O)C(O)CCC(O)CC(O)CC(O)CC(=O)O[C@H]1C)CC(O)C2C(=O)O (stereo partly shown) [Nys, nystatin, reference compound] | – | – | – | – | – | – | – | – | – | – | inhibition ratio% C. albicans [9]: 99.21%
4 | O=C(O)c1cn(C2CC2)c2cc(N3CCNCC3)c(F)cc2c1=O [Cip, ciprofloxacin, reference compound] | – | 99.25% | – | – | – | 99.56% | – | – | – | 99.8% | inhibition ratio% K. pneumonia (Klebsiella pneumonia): 99.7%; inhibition ratio% S. aureus ([2]; listed as CIP): 99.2%; inhibition ratio% E. coli [3]: 99.1%
6 | NS(=O)(=O)c1ccc(NC2=NC(=O)/C(=C\c3ccc(Cl)cc3)S2)cc1 [Compound 4d, (E)-4-(5-(4-Chlorobenzylidene)-4-oxo-4,5-dihydrothiazol-2-ylamino)benzenesulfonamide] | 1.88 ± 0.1 µM | – | – | – | – | – | 22.9 ± 0.8 µM | 15.5 ± 0.6 µM | – | – | –
7 | NS(=O)(=O)c1ccc(NC2=NC(=O)/C(=C\c3ccc(O)cc3)S2)cc1 [Compound 4b, (E)-4-(5-(4-Hydroxybenzylidene)-4-oxo-4,5-dihydrothiazol-2-ylamino)benzenesulfonamide] | 14.6 ± 0.6 µM | – | 78.29% | 53.06% | 18.78% | – | 17.8 ± 0.6 µM | 3.63 ± 0.1 µM | 16.85% | – | inhibition ratio% C. albicans [9]: 8.87%; Biofilm inhibition ratio% P. aeruginosa (P. aeruginosa): 45.51%
8 | COc1cc(/C=C2/SC(Nc3ccc(S(N)(=O)=O)cc3)=NC2=O)ccc1O [Compound 4h, (E)-4-(5-(4-Hydroxy-3-methoxybenzylidene)-4-oxo-4,5-dihydrothiazol-2-ylamino)benzenesulfonamide] | 1.56 ± 0.1 µM | 68.30% | 77.52% | 19.39% | 19.89% | 59.11% | 26.1 ± 1.1 µM | 1.52 ± 0.1 µM | 50.54% | 19.1% | inhibition ratio% K. pneumonia (Klebsiella pneumonia): 33.51%; IC50 (carbonic anhydrase II): 2.19 µM; inhibition ratio% E. coli [3]: 29.51%; Biofilm inhibition ratio% P. aeruginosa (P. aeruginosa): 35.96%; level of compound taken up into MDA-MB-231 cell line (MDA-MB-231 [5]): 17070 ng/mL; selectivity to breast cancer cell lines over MCF-10A (MCF 10A): 17.5 times; Biofilm inhibition ratio% S. typhimurium (S. typhimurium): 66.86%; IC50 (carbonic anhydrase IX; CA IX IC50 (nM)±S.D.): 25.6 nM; IC50 (carbonic anhydrase IX; CA IX IC50 (μM)): 26 nM
9 | NS(=O)(=O)c1ccc(NC2=NC(=O)/C(=C\c3ccc([N+](=O)[O-])cc3)S2)cc1 [Compound 4g, (E)-4-(5-(4-Nitrobenzylidene)-4-oxo-4,5-dihydrothiazol-2-ylamino)benzenesulfonamide] | 5.54 ± 0.2 µM | 69.74% | 79.46% | 35.24% | – | 60.97% | 47.9 ± 1.7 µM | 2.55 ± 0.1 µM | – | 23.3% | IC50 (carbonic anhydrase II): 1.55 µM; selectivity to breast cancer cell lines over MCF-10A (MCF 10A): 8.5 times; IC50 (carbonic anhydrase IX; CA IX IC50 (nM)±S.D.): 17 nM; IC50 (carbonic anhydrase IX; CA IX IC50 (μM)): 17 nM
10 | C[C@@H](O)[C@H]1C(=O)N2C(C(=O)O)=C(SCCN=CN)C[C@H]12 [imipenem] | – | – | – | – | – | – | – | – | – | – | zone inhibition (ZI) S. flexenari (S. flexenari): 27 mm; zone inhibition (ZI) E. coli (E. coli [10]): 30 mm
11 | CN(C)c1ccc(/C=C2/SC(Nc3ccc(S(N)(=O)=O)cc3)=NC2=O)cc1 [Compound 4j, (E)-4-(5-(4-(Dimethylamino)benzylidene)-4-oxo-4,5-dihydrothiazol-2-ylamino)benzenesulfonamide] | 10.1 ± 0.4 µM | – | – | – | – | – | 13.1 ± 0.5 µM | 26.6 ± 1 µM | – | 5.08% | –
12 | COc1cc(/C=C2/SC(Nc3ccc(S(N)(=O)=O)cc3)=NC2=O)cc(OC)c1OC [Compound 4i, (E)-4-(4-oxo-5-(3,4,5-Trimethoxybenzylidene)-4,5-dihydrothiazol-2-ylamino)benzenesulfonamide] | 16.3 ± 0.6 µM | – | 5.43% | 22.55% | 49.72% | – | 14.2 ± 0.5 µM | 4.05 ± 0.2 µM | 7.61% | – | Biofilm inhibition ratio% S. typhimurium (S. typhimurium): 22.86%
13 | COc1ccc(/C=C2/SC(Nc3ccc(S(N)(=O)=O)cc3)=NC2=O)cc1 [Compound 4c, (E)-4-(5-(4-Methoxybenzylidene)-4-oxo-4,5-dihydrothiazol-2-ylamino)benzenesulfonamide] | 6.31 ± 0.2 µM | – | – | – | – | – | 22.7 ± 0.8 µM | 3.67 ± 0.1 µM | – | – | –
14 | NS(=O)(=O)c1ccc(NC2=NC(=O)/C(=C\c3ccc(C(=O)O)cc3)S2)cc1 [Compound 4f, (E)-4-((4-oxo-2-(4-Sulfamoylphenylamino)thiazol-5(4H)-ylidene)methyl)benzoic acid] | 17.2 ± 0.7 µM | 57.93% | 10.08% | 21.43% | 19.89% | 45.72% | 30.3 ± 1.1 µM | 36 ± 1.4 µM | 64.67% | 3.39% | inhibition ratio% K. pneumonia (Klebsiella pneumonia): 26.80%; inhibition ratio% E. coli [3]: 46.45%; Biofilm inhibition ratio% S. typhimurium (S. typhimurium): 36.57%
